From PMC5365251, “Biophysical assay for tethered signaling reactions reveals tether-controlled activity for the phosphatase SHP-1” (Science Advances, 2017)
Blank lines part the entries; values can stand above or below the substance they belong to.

What was measured:
[1] = molecular target: T1, SHP-1 (Mus musculus, UniProt P29351); assay: SPR of SHP-1 injected over ITIM peptides: SHP-1 binding to the peptides; set-up: species or system murine; conditions: SHP-1 over peptides with shorter PEG linkers, compared with PEG28-ITIM; Fig. 5B
T1 construct: 6xHis (N); made in house; host or cells: Escherichia coli BL21-CodonPlus (DE3)-RIPL
Method: (§1) A construct expressing murine SHP-1 with an N-terminal 6× His tag was provided by M. H. Brown. Mutation of the SH2 domains was performed using a quick-change strategy. The mutations introduced were R30K and R33E for the N-terminal SH2 domain mutant and R136K for the C-terminal SH2 domain mutant previously shown to result in loss of binding ([6]). All peptides were ordered from PeptideSynthetics and were certified to be >95% pure. Peptides sequences were derived from the membrane-proximal ITIM sequence of mouse LAIR-1 receptor.
(§2) Experiments were performed on a Biacore 3000 instrument (GE Healthcare Life Sciences). All experiments were performed at 10°C and with a buffer flow rate of 10 μl/min. The buffer used was Hepes-buffered saline (HBS-EP; GE Healthcare Life Sciences), which contained 10 mM Hepes (pH 7.4), 150 mM NaCl, 3 mM EDTA, and 0.005% Surfactant P20.
A CM5 sensorchip was coupled with streptavidin to near saturation (typically between 4000 and 7000 RU) using the amine coupling kit (GE Healthcare Life Sciences) as described previously ([42]). After streptavidin was coupled, biotinylated peptides were injected to give the indicated concentrations in experimental flow cells, and excess biotin-binding sites were blocked with biotin in HBS-EP. […]

[2] = molecular target: T1, SHP-1; assay: SPR of SHP-1 injected over ITIM peptides with different PEG linker lengths: reach and tethered catalysis (MPDPDE fit); format: biochemical, murine; conditions: for kcat*(tethered) versus tether length: SHP-1 over peptides with shorter PEG linkers, compared with PEG28-ITIM, Fig. 5B; for L (reach parameter) versus tether length: SHP-1 over peptides, average fit, PEG28 n = 15, PEG0 n = 2, 10°C, HBS-EP pH 7.4
Method: as §1, §2
(§3) A CM5 sensorchip was coupled with streptavidin to near saturation (typically between 4000 and 7000 RU) using the amine coupling kit (GE Healthcare Life Sciences) as described previously ([42]). After streptavidin was coupled, biotinylated peptides were injected to give the indicated concentrations in experimental flow cells, and excess biotin-binding sites were blocked with biotin in HBS-EP. The molar ratio of peptide to streptavidin was kept below 1:1 to ensure that peptide immobilization was random and not clustered on the tetravalent streptavidin molecules. Reference flow cells were treated with buffer and then blocked with biotin; pilot experiments using unphosphorylated control peptides in reference flow cells were indistinguishable from buffer-treated reference flow cells when injected with SHP-1. The chip surface was then conditioned with 5 × 5-min injections of HBS-EP. SHP-1 protein in HBS-EP with 1 mM dithiothreitol was then injected over reference and experimental flow cells in series for 5 min at the indicated concentrations. All SPR data were converted from the reference-subtracted data (in resonance units) to fraction bound by dividing the resonance units by the theoretical maximum resonance units expected if the experimental flow cell was saturated with bound SHP-1.
The five fitting parameters (p1, p2, p3, p4, and p5) are related to the five biophysical/biochemical constants as follows: p1 = kon [SHP-1], p2 = koff, p3=kcat*(tethered)× [peptide], p4=kcat*(tethered)/L^3 , and p5=kcat*(solution)× [SHP-1].
The MPDPDE model was fit to the experimental data using lsqcurvefit in Matlab (Mathworks). Specifically, the value of nB from the MPDPDE model was fit to the experimental SPR data that were normalized to maximum binding. Each fit was repeated multiple times with different initial guesses for the five fitting parameters to make certain that the best fit was achieved (global convergence). […]

[3] = system: PEG28-ITIM; assay: SPR of SHP-1 injected over immobilised PEG28-ITIM: binding constants (MPDPDE fit); set-up: species or system mouse; conditions: SHP-1 variants over PEG28-ITIM, compared with wild-type
Method: as §1, §2, §3
To determine the concentration of peptide in the assays, we first needed a conversion factor between the resonance units and the mass of peptide at the chip surface. We determined this conversion factor by injecting four concentrations of SHP-1 over a control flow cell on a CM5 chip and plotting the mass of SHP-1 injected against the raw resonance unit change. We repeated this on seven flow cells across four sensor chips to get an average slope of 149 ± 15 RU per g/liter (±SEM). […]

[4] = system: PEG28-ITIM; assay: SPR of SHP-1 injected over immobilised PEG28-ITIM: tethered/solution catalysis and reach (MPDPDE fit); format: biochemical, mouse; conditions: for L (reach parameter), SH2 variants / allosteric activation (in words), SH2 variants: SHP-1 variants over PEG28-ITIM; for L (reach parameter), SH2 variants: average fit Fig. 6B: WT n = 15, N-SH2 mutant n = 3, C-SH2 mutant n = 9
Method: as §1, §2, §3
To determine the concentration of peptide in the assays, we first needed a conversion factor between the resonance units and the mass of peptide at the chip surface. We determined this conversion factor by injecting four concentrations of SHP-1 over a control flow cell on a CM5 chip and plotting the mass of SHP-1 injected against the raw resonance unit change. We repeated this on seven flow cells across four sensor chips to get an average slope of 149 ± 15 RU per g/liter (±SEM). This constant, together with the molecular weight of the peptide, was used to convert between the resonance units of peptides immobilized and the molar concentration at the chip surface. For example, 48.5 RU of PEG28-ITIM (molecular weight, 3221) was immobilized to obtain [peptide] = 97.1 μM (Fig. 2A).
From the MPDPDE model–simulated SPR traces, one would predict that the kcat*(solution) (fig. S4, G and H) and L (fig. S4F) are likely to be very sensitive to small systematic errors in the SPR trace at longer time scales. Nonspecific binding and baseline drift are two well-known sources of such systemic errors that can produce artifacts at long time scales (see fig. S6A for examples). To exclude data affected by these artifacts, we propose a simple quality control check that greatly improves the accuracy of estimating L, kcat*(tethered) , and kcat*(solution) . As a measure of the signal-to-noise ratio at long time points, we took the resonance units 20 s after the injection was completed (noise) and divided it by the resonance units 20 s before the injection finished (signal). […] Data that had evidence of significant artifact were excluded from the study based on this criterion (red data points in fig. S6B). […]

Substance: Biotin-(PEG)3-DLQEVTY*IQLDHH [PEG3-ITIM]
kon versus tether length [1]: decrease | kcat*(tethered) versus tether length [2]: decrease

Substance: Biotin-(PEG)28-DLQEVTY*IQLDHH [PEG28-ITIM]
L (reach parameter) versus tether length [2]: 23 nm

Substance: Biotin-GDLQEVTY*IQLDHH [PEG0-ITIM]
kon versus tether length [1]: decrease | kcat*(tethered) versus tether length [2]: decrease | L (reach parameter) versus tether length [2]: 17 nm

binding to ITIM peptide (in words), SH2 variants [3]: weak effect on binding
Substance: C-terminal mutant: SHP-1 with R136K mutation in the C-terminal SH2 domain
L (reach parameter), SH2 variants [4]: 23.9 nm | allosteric activation (in words), SH2 variants ([4]; Fig. 6B): allosteric activation is observed in both cases

binding to ITIM peptide (in words), SH2 variants ([3]; listed as Mutation of the N-terminal SH2 domain): drastically reduced binding | binding to ITIM peptide (in words), SH2 variants ([3]; listed as N-terminal SH2 (N-SH2) mutant SHP-1): weak binding
Substance: N-terminal mutant: SHP-1 with R30K and R33E mutations in the N-terminal SH2 domain
kcat*(tethered) over kcat*(solution), SH2 mutant ([4]; N-SH2 mutant SHP-1 over PEG28-ITIM, n = 3): 10 fold | L (reach parameter), SH2 variants [4]: 16.5 nm | allosteric activation (in words), SH2 variants ([4]; Fig. 6B): still exhibited allosteric activation | allosteric activation (in words), SH2 variants ([4]; Fig. 6B, listed as N-terminal SH2 (N-SH2) mutant SHP-1): allosteric activation is observed in both cases | reach (in words), SH2 variants ([4]; binding via C-terminal compared to N-terminal SH2 domain, PEG28-ITIM, Fig. 6B): reduced reach
